# Data published in US20230049952A1, “METHODS AND COMPOUNDS FOR RESTORING MUTANT P53 FUNCTION” (PMV Pharmaceuticals, Inc., priority 2020, published 2023).
# Test system: p53 signaling pathway in MT373 tumors
# Experiment: MT373 syngeneic sarcoma model: mouse p53 signaling pathway profiling panel
# Assay type: in vivo
smiles,measurement,setting,value
"CCn1c(C#CCNc2ccccc2)cc2cc(CNC3CCN(C)CC3)ccc21 [Compound 1, 1-Anilino-3-{1-ethyl-5-[(1-methyl-4-piperidylamino)methyl]-1H-indol-2-yl}-2-propyne]",Casp2 fold increase or percent reduction vs vehicle control,"75 mg/kg BIDx1, 24 h",16.13 fold or %
same,Ccnb1 fold increase or percent reduction vs vehicle control,"75 mg/kg BIDx1, 24 h",65.51 fold or %
same,Ccne1 fold increase or percent reduction vs vehicle control,"75 mg/kg BIDx1, 24 h",29.87 fold or %
same,Ccng1 fold increase or percent reduction vs vehicle control,"75 mg/kg BIDx1, 24 h",4.63 fold or %
same,Ccnh fold increase or percent reduction vs vehicle control,"75 mg/kg BIDx1, 24 h",3.31 fold or %
same,Cdc25a fold increase or percent reduction vs vehicle control,"75 mg/kg BIDx1, 24 h",34.15 fold or %
same,Cdk1 fold increase or percent reduction vs vehicle control,"75 mg/kg BIDx1, 24 h",59.92 fold or %
same,Cdk4 fold increase or percent reduction vs vehicle control,"75 mg/kg BIDx1, 24 h",40.50 fold or %
same,Cdkn1a fold increase or percent reduction vs vehicle control,"75 mg/kg BIDx1, 24 h",5.16 fold or %
same,Cdkn2a fold increase or percent reduction vs vehicle control,"75 mg/kg BIDx1, 24 h",16.83 fold or %
same,Chek1 fold increase or percent reduction vs vehicle control,"75 mg/kg BIDx1, 24 h",52.36 fold or %
same,Cradd fold increase or percent reduction vs vehicle control,"75 mg/kg BIDx1, 24 h",5.90 fold or %
same,Cul9 fold increase or percent reduction vs vehicle control,"75 mg/kg BIDx1, 24 h",1.58 fold or %
same,Dapk1 fold increase or percent reduction vs vehicle control,"75 mg/kg BIDx1, 24 h",1.19 fold or %
same,Dnmt1 fold increase or percent reduction vs vehicle control,"75 mg/kg BIDx1, 24 h",17.60 fold or %
same,E2f1 fold increase or percent reduction vs vehicle control,"75 mg/kg BIDx1, 24 h",10.67 fold or %
same,E2f3 fold increase or percent reduction vs vehicle control,"75 mg/kg BIDx1, 24 h",27.77 fold or %
same,Egfr fold increase or percent reduction vs vehicle control,"75 mg/kg BIDx1, 24 h",28.18 fold or %
same,Egr1 fold increase or percent reduction vs vehicle control,"75 mg/kg BIDx1, 24 h",64.73 fold or %
same,Ep300 fold increase or percent reduction vs vehicle control,"75 mg/kg BIDx1, 24 h",3.09 fold or %
same,Ercc1 fold increase or percent reduction vs vehicle control,"75 mg/kg BIDx1, 24 h",18.66 fold or %
same,Esr1 fold increase or percent reduction vs vehicle control,"75 mg/kg BIDx1, 24 h",1.26 fold or %
same,Fadd fold increase or percent reduction vs vehicle control,"75 mg/kg BIDx1, 24 h",5.60 fold or %
same,Fas fold increase or percent reduction vs vehicle control,"75 mg/kg BIDx1, 24 h",1.45 fold or %
same,Fasl fold increase or percent reduction vs vehicle control,"75 mg/kg BIDx1, 24 h",10.36 fold or %
same,Foxo3 fold increase or percent reduction vs vehicle control,"75 mg/kg BIDx1, 24 h",3.58 fold or %
same,Gadd45a fold increase or percent reduction vs vehicle control,"75 mg/kg BIDx1, 24 h",19.41 fold or %
same,Hif1a fold increase or percent reduction vs vehicle control,"75 mg/kg BIDx1, 24 h",13.43 fold or %
same,Il6 fold increase or percent reduction vs vehicle control,"75 mg/kg BIDx1, 24 h",70.78 fold or %
same,Jun fold increase or percent reduction vs vehicle control,"75 mg/kg BIDx1, 24 h",38.98 fold or %
same,Kras fold increase or percent reduction vs vehicle control,"75 mg/kg BIDx1, 24 h",13.87 fold or %
same,Lig4 fold increase or percent reduction vs vehicle control,"75 mg/kg BIDx1, 24 h",1.17. fold or %
same,Mdm2 fold increase or percent reduction vs vehicle control,"75 mg/kg BIDx1, 24 h",2.76 fold or %
same,Mdm4 fold increase or percent reduction vs vehicle control,"75 mg/kg BIDx1, 24 h",1.07 fold or %
same,Mel1 fold increase or percent reduction vs vehicle control,"75 mg/kg BIDx1, 24 h",15.14 fold or %
same,Mlh1 fold increase or percent reduction vs vehicle control,"75 mg/kg BIDx1, 24 h",9.12 fold or %
same,Msh2 fold increase or percent reduction vs vehicle control,"75 mg/kg BIDx1, 24 h",29.40 fold or %
same,Myod1 fold increase or percent reduction vs vehicle control,"75 mg/kg BIDx1, 24 h",3.54 fold or %
same,Nf1 fold increase or percent reduction vs vehicle control,"75 mg/kg BIDx1, 24 h",16.46 fold or %
same,Nfkb1 fold increase or percent reduction vs vehicle control,"75 mg/kg BIDx1, 24 h",15.21 fold or %
same,Pcna fold increase or percent reduction vs vehicle control,"75 mg/kg BIDx1, 24 h",43.21 fold or %
same,Pmaip1 fold increase or percent reduction vs vehicle control,"75 mg/kg BIDx1, 24 h",3.81 fold or %
same,Ppm1d fold increase or percent reduction vs vehicle control,"75 mg/kg BIDx1, 24 h",1.26 fold or %
same,Prc1 fold increase or percent reduction vs vehicle control,"75 mg/kg BIDx1, 24 h",26.03 fold or %
same,Prkca fold increase or percent reduction vs vehicle control,"75 mg/kg BIDx1, 24 h",16.45 fold or %
same,Pten fold increase or percent reduction vs vehicle control,"75 mg/kg BIDx1, 24 h",1.18 fold or %
same,Pttg1 fold increase or percent reduction vs vehicle control,"75 mg/kg BIDx1, 24 h",1.07 fold or %
same,Rb1 fold increase or percent reduction vs vehicle control,"75 mg/kg BIDx1, 24 h",1.14 fold or %
same,Rela fold increase or percent reduction vs vehicle control,"75 mg/kg BIDx1, 24 h",32.18 fold or %
same,Rprm fold increase or percent reduction vs vehicle control,"75 mg/kg BIDx1, 24 h",1.77 fold or %
same,Serpinb5 fold increase or percent reduction vs vehicle control,"75 mg/kg BIDx1, 24 h",1.20 fold or %
same,Sesn2 fold increase or percent reduction vs vehicle control,"75 mg/kg BIDx1, 24 h",2.05 fold or %
same,Sfn fold increase or percent reduction vs vehicle control,"75 mg/kg BIDx1, 24 h",15.25 fold or %
same,Sirt1 fold increase or percent reduction vs vehicle control,"75 mg/kg BIDx1, 24 h",6.13 fold or %
same,Stat1 fold increase or percent reduction vs vehicle control,"75 mg/kg BIDx1, 24 h",1.08 fold or %
same,Tnf fold increase or percent reduction vs vehicle control,"75 mg/kg BIDx1, 24 h",24.76 fold or %
same,Traf1 fold increase or percent reduction vs vehicle control,"75 mg/kg BIDx1, 24 h",1.06 fold or %
same,Trp53bp2 fold increase or percent reduction vs vehicle control,"75 mg/kg BIDx1, 24 h",5.61 fold or %
same,Trp53 fold increase or percent reduction vs vehicle control,"75 mg/kg BIDx1, 24 h",18.16 fold or %
same,Apex1 fold increase or percent reduction vs vehicle control,"75 mg/kg BIDx1, 48 h",21.30 fold or %
same,Atm fold increase or percent reduction vs vehicle control,"75 mg/kg BIDx1, 48 h",18.31 fold or %
same,Atr fold increase or percent reduction vs vehicle control,"75 mg/kg BIDx1, 48 h",14.07 fold or %
same,Bag1 fold increase or percent reduction vs vehicle control,"75 mg/kg BIDx1, 48 h",42.29 fold or %
same,Bax fold increase or percent reduction vs vehicle control,"75 mg/kg BIDx1, 48 h",23.39 fold or %
same,Bbc3 fold increase or percent reduction vs vehicle control,"75 mg/kg BIDx1, 48 h",1.32 fold or %
same,Bid fold increase or percent reduction vs vehicle control,"75 mg/kg BIDx1, 48 h",1.21 fold or %
same,Birc5 fold increase or percent reduction vs vehicle control,"75 mg/kg BIDx1, 48 h",50.48 fold or %
same,Brca1 fold increase or percent reduction vs vehicle control,"75 mg/kg BIDx1, 48 h",31.46 fold or %
same,Brca2 fold increase or percent reduction vs vehicle control,"75 mg/kg BIDx1, 48 h",25.33 fold or %
same,Btg2 fold increase or percent reduction vs vehicle control,"75 mg/kg BIDx1, 48 h",11.23 fold or %
same,Casp2 fold increase or percent reduction vs vehicle control,"75 mg/kg BIDx1, 48 h",9.89 fold or %
same,Ccnb1 fold increase or percent reduction vs vehicle control,"75 mg/kg BIDx1, 48 h",59.73 fold or %
same,Ccne1 fold increase or percent reduction vs vehicle control,"75 mg/kg BIDx1, 48 h",5.97 fold or %
same,Ccng1 fold increase or percent reduction vs vehicle control,"75 mg/kg BIDx1, 48 h",9.36 fold or %
same,Ccnh fold increase or percent reduction vs vehicle control,"75 mg/kg BIDx1, 48 h",12.98 fold or %
same,Cdc25a fold increase or percent reduction vs vehicle control,"75 mg/kg BIDx1, 48 h",16.12 fold or %
same,Cdk1 fold increase or percent reduction vs vehicle control,"75 mg/kg BIDx1, 48 h",55.02 fold or %
same,Cdk4 fold increase or percent reduction vs vehicle control,"75 mg/kg BIDx1, 48 h",48.77 fold or %
same,Cdkn1a fold increase or percent reduction vs vehicle control,"75 mg/kg BIDx1, 48 h",1.03 fold or %
same,Cdkn2a fold increase or percent reduction vs vehicle control,"75 mg/kg BIDx1, 48 h",23.77 fold or %
same,Chek1 fold increase or percent reduction vs vehicle control,"75 mg/kg BIDx1, 48 h",37.45 fold or %
same,Cradd fold increase or percent reduction vs vehicle control,"75 mg/kg BIDx1, 48 h",13.67 fold or %
same,Cul9 fold increase or percent reduction vs vehicle control,"75 mg/kg BIDx1, 48 h",2.20 fold or %
same,Dapk1 fold increase or percent reduction vs vehicle control,"75 mg/kg BIDx1, 48 h",1.46 fold or %
